Experimental data published in ChEMBL document CHEMBL4825734, “Synthesis, activity and mechanism for double-ring conjugated enones” (Bioorg Med Chem Lett, 2021).
Each block holds one molecule with its values, some of them ahead of it. Calls of active or inactive are those of the source. The rule behind the calls is not given here.

Assays:
[1] = molecular target: Toll-like receptor 4 (Homo sapiens, UniProt O00206); assay: Inhibition of TLR4 (unknown origin) by sandwich ELISA method
[2] = test system: Synovial cell; assay: Inhibition of LPS-induced cytomorphological changes in rat synovial cells assessed as reduction in refractive ability with irregular spindle or round shaped cell body at 1 uM; format: functional, cell-based
[3] = test system: Synovial cell; assay: Antiinflammatory activity in rat synovial cells assessed as downregulation of LPS-induced TNF-alpha production at 1 uM measured by ELISA; format: functional, cell-based
[4] = test system: Synovial cell; assay: Antiinflammatory activity in rat synovial cells assessed as downregulation of LPS-induced IL-6 production at 1 uM measured by ELISA; format: functional, cell-based
[5] = test system: Synovial cell; assay: Antiinflammatory activity in rat synovial cells assessed as downregulation of LPS-induced IL-1 beta production at 1 uM measured by ELISA; format: functional, cell-based
[6] = test system: Synovial cell; assay: Antiinflammatory activity in rat synovial cells assessed as decrease in LPS-induced MyD88 protein expression at 1 uM by DAPI staining based immunofluorescence microscopic analysis; format: functional
[7] = test system: Synovial cell; assay: Antiinflammatory activity in rat synovial cells assessed as decrease in LPS-induced TLR4 protein expression at 1 uM by DAPI staining based immunofluorescence microscopic analysis; format: functional
[8] = test system: Synovial cell; assay: Antiinflammatory activity in rat synovial cells assessed as decrease in LPS-induced NF-kappaB protein expression at 1 uM by DAPI staining based immunofluorescence microscopic analysis; format: functional
[9] = test system: Synovial cell; assay: Induction of apoptosis in rat synovial cells assessed as green coloured positive apoptotic cells with nuclear pyknosis and chromatin condensation at 1 uM in presence of LPS by TUNEL staining based microscopic analysis; format: functional
[10] = test system: Synovial cell; assay: Induction of apoptosis in rat synovial cells assessed as increase in caspase-3 expression at 1 uM in presence of LPS by DAPI staining based immunofluorescence microscopic analysis; format: functional
[11] = test system: Synovial cell; assay: Inhibition of LPS-induced abnormal proliferation in rat synovial cells assessed as reduction in cell number at 1 uM; format: functional, cell-based
[12] = test system: Synovial cell; assay: Antiinflammatory activity in LPS-stimulated rat synovial cells assessed as increase in IkappaB protein expression at 1 uM by DAPI staining based immunofluorescence microscopic analysis; format: functional

Toll-like receptor 4, sequence (O00206 whole entry): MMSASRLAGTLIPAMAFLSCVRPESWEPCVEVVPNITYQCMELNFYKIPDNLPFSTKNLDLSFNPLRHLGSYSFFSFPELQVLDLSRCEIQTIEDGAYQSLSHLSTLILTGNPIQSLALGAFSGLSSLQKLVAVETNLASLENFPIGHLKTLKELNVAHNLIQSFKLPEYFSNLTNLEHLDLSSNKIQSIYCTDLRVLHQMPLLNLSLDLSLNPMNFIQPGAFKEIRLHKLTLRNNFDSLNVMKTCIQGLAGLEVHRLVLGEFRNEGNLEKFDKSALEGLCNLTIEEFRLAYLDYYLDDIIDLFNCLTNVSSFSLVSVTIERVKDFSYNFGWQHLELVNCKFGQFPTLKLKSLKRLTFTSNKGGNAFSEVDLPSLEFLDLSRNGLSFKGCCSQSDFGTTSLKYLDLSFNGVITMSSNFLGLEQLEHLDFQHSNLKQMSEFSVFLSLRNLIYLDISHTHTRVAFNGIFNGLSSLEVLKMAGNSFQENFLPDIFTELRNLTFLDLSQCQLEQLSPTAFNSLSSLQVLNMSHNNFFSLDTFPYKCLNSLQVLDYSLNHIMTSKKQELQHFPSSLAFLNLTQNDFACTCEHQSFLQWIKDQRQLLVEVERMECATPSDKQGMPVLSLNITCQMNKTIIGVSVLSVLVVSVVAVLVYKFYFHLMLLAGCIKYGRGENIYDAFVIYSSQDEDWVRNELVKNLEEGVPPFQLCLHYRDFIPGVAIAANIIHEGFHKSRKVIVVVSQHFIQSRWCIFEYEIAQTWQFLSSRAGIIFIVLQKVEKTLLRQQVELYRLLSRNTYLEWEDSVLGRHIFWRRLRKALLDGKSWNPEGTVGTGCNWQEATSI

SMILES: CN(Cc1cnc2nc(N)nc(N)c2n1)c1ccc(C(=O)N[C@@H](CCC(=O)O)C(=O)O)cc1 [METHOTREXATE]
- inhibition [2]: Active
- Activity [3]: Active
- Activity [4]: Active
- Activity [5]: Active
- Activity [6]: Active
- Activity [7]: Active
- Activity [8]: Active
- Activity [9]: Active
- Activity [10]: Active
- IC50 [1]: 1040 nM
- inhibition [11]: Active
- Activity [12]: Active

SMILES: O=C1C=C2CC[C@@H](NC(=O)OCc3ccccc3)CC2C(=O)C1 (stereo partly specified)
- inhibition [2]: Active
- Activity [3]: Active
- Activity [4]: Active
- Activity [5]: Active
- Activity [6]: Active
- Activity [7]: Active
- Activity [8]: Active
- Activity [9]: Active
- Activity [10]: Active
- IC50 [1]: 560 nM
- inhibition [11]: Active
- Activity [12]: Active

SMILES: CC(C)[C@H]1CCC2C(=O)CCC(=O)C=C21 (stereo partly specified)
- IC50 [1]: 2820 nM

SMILES: O=C1C=C2C(CC[C@@H]2Cl)C(=O)C1 (stereo partly specified)
- IC50 [1]: 2710 nM

SMILES: C[C@H]1CCC2C(=O)CCC(=O)C=C2C1 (stereo partly specified)
- IC50 [1]: 2660 nM

The remaining molecules from weak to strong by IC50 [1], led by results:

- IC50 [1]: 2530 nM
SMILES: CC(C)[C@H]1CCC2C(=O)CC(=O)C=C21 (stereo partly specified)

- IC50 [1]: 1850 nM
SMILES: O=C1C=C2CCCCC2C(=O)CC1 (stereo unspecified)

- IC50 [1]: 1540 nM
SMILES: CCOC(=O)[C@H]1CCCC2C(=O)CC(=O)C=C21 (stereo partly specified)

- IC50 [1]: 730 nM
SMILES: CCCC1CCC([C@@H]2CCC3=CC(=O)CC(=O)C3C2)CC1 (stereo partly specified)
